Data from patent US20220251092A1, “CASEIN KINASE 1EPSILON INHIBITOR, PHARMACEUTICAL COMPOSITION AND APPLICATION THEREOF” (HANGZHOU HEALZEN THERAPEUTICS CO., LTD., priority 2019, published 2022).
pIC50: −log10 of the molar value. Like-named read-outs stand apart in the source and are kept apart here.

Experiments:
CK1ε [1] = target: T1, CK1ε (Homo sapiens, UniProt P49674); details: cited from earlier work
[2] = Bioavailability study in rats; format: in vivo, SD rats; details: rat; for AUC(0-t) / Cmax / Tmax / bioavailability: Sprague-Dawley, plasma; for bioavailability: PO 10 mg/kg vs IV 1 mg/kg of II-A-7a
Description: SD rats were used as the experimental animals, to which drugs of 10 mg/kg were administered by gavage and 1 mg/kg by tail intravenous injection. […] Whole blood (0.3 ml) was collected, 0.1 ml of plasma was separated by centrifugation at 2000 g for 10 min, and the samples were analyzed by LC-MS/MS.

OCI-LY10 cells = assay: In-vitro anti-tumor activity, OCI-LY10 cells, CCK-8; format: cell-based, human; details: for pIC50: Homo sapiens, OCI-LY10, 72h, CCK-8
Description: The in-vitro anti-tumor activities of the synthesized compounds were determined using a diffuse large B-cell lymphoma (OCI-LY10) cell strain:
Drug preparation method: The drug was dissolved in DMSO to make a stock solution of 10 mM and diluted in a certain ratio to obtain 7 different concentrations (test concentration: 100×).
In vitro culture of tumor cells: The selected OCI-LY10 cells were incubated with a medium of IMDM+fetal bovine serum in a 5% CO2 cell culture incubator at 37° C., and were passaged when the cell density grew to 70-90% (adherent cells were passaged after digestion with Duck's EDTA) for later experiments as needed. Four thousand cells/200 μl/well were seeded in a 96-well plate and incubated overnight in a 5% CO2 cell incubator at 37° C. Two μl of the compounds were dispensed in each well at final concentrations of […], and incubation was performed together for 72h in a 5% CO2 cell incubator at 37° C. with DMSO (2%) as control. After 72h, 20 μl of CCK-8 solution was added and the plate was placed in a 5% CO2 cell culture incubator at 37° C. for 4h. Wells with the corresponding amounts of cell culture medium and CCK-8 solution but without cells were used as blank controls. The absorbance (OD values) was measured at 450 nm using an enzyme marker, and the obtained data were used to calculate the IC50.

CK1ε [3] = target: T1, CK1ε; assay: CK1ε kinase activity assay (Caliper, FAM-labelled polypeptide); format: biochemical
Description: The in-vitro assay of inhibitory activity of the compound herein against CK1ε kinase was:
(1) preparation of 1× kinase basic buffer and stop buffer: • 1×kinase basic buffer: 50 mM HEPES, pH 7.5; and 0.0015% Brij-35; • stop buffer: 100 mM HEPES, pH 7.5; 0.015% Brij-35; 0.2% Coating Reagent #3; and 50 mM EDTA.
(2) preparation of the test compound: • a 50× (“n×” represents dilution factor, same hereafter) stock solution of the compound with DMSO (10 mM, DMSO) to obtain stock solution I for use; […] of stock solution I was placed in a 96-well plate, each compound sample was diluted by 5-fold serial dilution till 10 concentrations was obtained while ensuring 10 μl of drug solution in each well; meanwhile, 100 μl of DMSO was used as a blank control group and a negative control group without enzyme substrate; • a separate 96-well plate was prepared, and to 10 μl of the above compound,
90 μl of 1× kinase foundation buffer was added, mixed well for 10 min to obtain a mixture.

OCI-LY10 xenograft tumor = assay: In vivo pharmacodynamic study, OCI-LY10 subcutaneous xenograft in SCID mice; set-up: species or system SCID mouse; details: combinations with 17a 6 mg/kg PO QD
Description: OCI-LY10 cells were cultured in an IMDM medium containing 20% FBS and maintained in a 5% CO2 incubator at 37° C. with saturated humidity. OCI-LY10 cells of logarithmic phase were collected and resuspended in an IMDM basic medium containing 50% Matrigel, and the cell concentration was adjusted to 5×10^7/ml. Subcutaneous inoculation of 0.1 ml of the cell suspension was performed aseptically in the right dorsum of mice at a concentration of 5×10^6/0.1 ml/mouse. Once the tumor volume reached about 150 mm^3, the animals were randomly grouped according to tumor volume so that the difference in tumor volume between the groups was less than 10% of the mean value. The date of grouping was recorded as Day 0, and drug administration was started based on the body weight of the animals. During drug administration, body weight of certain animals decreased by more than 15% compared to Day 0 (BWL≥15%), drug administration was discontinued for these animals until their body weight recovered (BWL<15%). The body weight and tumor volume of the animals were measured twice a week during the experiment, and clinical signs were observed and recorded daily.
The efficacy in terms of tumor volume was evaluated by the relative tumor proliferation rate T/C ratio, and T/C (%) was calculated as TRTV/CRTV[…], where TRTV is the relative tumor volume (RTV) of the treatment group and CRTV is the RTV of the negative control group. The RTV was calculated as Vt/V0, where V0 is the tumor volume at the time of grouping and Vt is the tumor volume at each measurement. The drug is considered effective with T/CP≤40% according to NMPA guidelines.
The efficacy in terms of tumor weight was evaluated by TGI (tumor weight inhibition) values, TGI 0%=(TWC−TWT)/TWC×[…], where TWC is tumor weight of control group, and TWT is tumor weight of treatment group. The drug is considered effective with TGI≥58% according to NIH guidelines.

Karpas299 cells = assay: In-vitro anti-tumor activity, Karpas299 cells, CellTiter-Glo; format: cell-based; details: Homo sapiens, KARPAS-299, Karpas299, 72h
Description: In-vitro anti-tumor activities of the synthesized compounds were determined using Human Non-Hodgkin's Ki-positive Large Cell Lymphoma (Karpas299) cell strain:
Drug preparation method: The drugs were dissolved in DMSO to make stock solutions of 10 mM and diluted in a certain ratio to obtain 7 different concentrations (test concentration: 100×).
In vitro culture of tumor cells: The selected Karpas299 cells were incubated in a 500 CO2 cell culture incubator at 37° C. using RPMI-1640^+ fetal bovine serum medium. Four thousand cells/100 μl/well were seeded in a 96-well plate and incubated overnight in a 500 CO2 cell incubator at 37° C. Five μl of the compounds were dispensed in each well at final concentrations of 10 μM, 2.5 μM, 0.625 μM, 0.15625 μM, 0.039063 μM, 0.0097656 μM and 0.0024414 μM, and incubation was performed together for 72h in a 5% CO2 cell incubator at 37° C. with DMSO (0.10%) as controls. After 72h, the CellTiter-Glo buffer and reaction substrate were taken out of the fridge and equilibrated to room temperature. The buffer was then poured into a brown bottle containing the substrate. The bottle was turned up and down so that the substrate powder was fully dissolved. […] A white sealing film was attached to the bottom of the well plate, and the chemiluminescence signal of each well was detected with an Enspire microplate reader. […]

[4] = Table 4, 100 mg/kg PO QD Day 0-38
[5] = Table 5, 50 mg/kg PO QD Day 0-38

T1 sequence (P49674 whole entry): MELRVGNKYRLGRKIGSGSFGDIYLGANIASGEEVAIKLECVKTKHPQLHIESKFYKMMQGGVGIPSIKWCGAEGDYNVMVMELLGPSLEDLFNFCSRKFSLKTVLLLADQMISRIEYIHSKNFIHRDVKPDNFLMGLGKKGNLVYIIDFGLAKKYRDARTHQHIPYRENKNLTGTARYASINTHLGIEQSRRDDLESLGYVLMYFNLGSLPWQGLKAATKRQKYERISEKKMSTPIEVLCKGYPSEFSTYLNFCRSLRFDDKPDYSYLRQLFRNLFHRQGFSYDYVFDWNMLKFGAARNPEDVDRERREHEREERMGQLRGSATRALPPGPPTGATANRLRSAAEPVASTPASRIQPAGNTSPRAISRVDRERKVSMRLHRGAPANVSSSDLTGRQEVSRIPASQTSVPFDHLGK

## CC[C@@H](c1nc2cccc(F)c2c(=O)n1-c1ccccc1)n1nc(-c2ccc(OC(C)C)c(F)c2)c2c(N)ncnc21 [CUX-03166]
CK1ε [1]; literature values in WO2017079558A1, read-out: CK1ε (IC50)
  pIC50: 4.09

## COc1ccc(-c2nn([C@@H](C)c3nc4cccc(Cl)c4c(=O)n3-c3ccccc3)c3ncnc(N)c23)c(F)c1F.O=S(=O)(O)O [II-D-6, (S)-2-(1-(4-amino-3-(2,3-difluoro-4-methoxyphenyl)-1H-pyrazolo[3,4-d]pyrimidin-1-yl)ethyl)-5-chloro-3-phenylquinazolin-4(3H)-one sulfate]
[2]; PO 10 mg/kg
  AUC(0-t): 21500 ng·h/mL
  Cmax: 2130 ng/mL
  Tmax: 1.67 h
[2]
  bioavailability: 29.8%
[2]; salt vs compound in the free state (II-A-7a)
  increase in bioavailability: 3.7 fold

## COc1ccc(-c2nn(C(C)c3nc4cccc(Cl)c4c(=O)n3-c3ccccc3)c3ncnc(N)c23)c(F)c1F (stereo not drawn) [II-A-7, 2-(1-(4-amino-3-(2,3-difluoro-4-methoxyphenyl)-1H-pyrazolo[3,4-d]pyrimidin-1-yl)ethyl)-5-chloro-3-phenylquinazolin-4(3H)-one]
OCI-LY10 cells; read-out: IC50
  pIC50: 7.66
OCI-LY10 cells; read-out: IC50 value
  pIC50: 7.66
OCI-LY10 cells; compared to compound C
  fold increase of OCI-LY10 proliferation inhibitory activity: 123 fold
CK1ε [3]
  pIC50: 7.01
CK1ε [3]; compared to compound C
  fold increase of inhibitory activity against CK1ε: 7.2 fold
OCI-LY10 xenograft tumor; [4]
  RTV Day 39: 2.23 ± 0.15
  T/C (%) Day 39: 32.35%
  TGI (%): 66.29%
  Tumor weight: 0.269 ± 0.028 g

## COc1ccc(-c2nn(C(C)c3nc4ccccc4c(=O)n3-c3ccccc3)c3ncnc(N)c23)c(F)c1F (stereo not drawn) [II-A-1, 2-(1-(4-amino-3-(2,3-difluoro-4-methoxyphenyl)-1H-pyrazolo[3,4-d]pyrimidin-1-yl)ethyl)-3-phenylquinazolin-4(3H)-one]
OCI-LY10 cells; read-out: IC50
  pIC50: 6.85
CK1ε [3]
  pIC50: 6.79
OCI-LY10 xenograft tumor; [4]
  RTV Day 39: 2.45 ± 0.50
  T/C (%) Day 39: 35.40%
  TGI (%): 63.91%
  Tumor weight: 0.288 ± 0.064 g

## COc1ccc(-c2nn([C@@H](C)c3nc4ccccc4c(=O)n3-c3ccccc3)c3ncnc(N)c23)c(F)c1F [II-A-1a, (S)-2-(1-(4-amino-3-(2,3-difluoro-4-methoxyphenyl)-1H-pyrazolo[3,4-d]pyrimidin-1-yl)ethyl)-3-phenylquinazolin-4(3H)-one]
OCI-LY10 cells; read-out: IC50
  pIC50: 6.95
CK1ε [3]
  pIC50: 6.97
OCI-LY10 xenograft tumor; [5]
  RTV Day 39: 1.69 ± 0.27
  T/C (%) Day 39: 23.12%
  TGI (%): 77.46%
  Tumor weight: 0.270 ± 0.043 g
Karpas299 cells
  pIC50: 6.01

## COc1ccc(-c2nn([C@@H](C)c3nc4cccc(Cl)c4c(=O)n3-c3ccccc3)c3ncnc(N)c23)c(F)c1F [II-A-7a, (S)-2-(1-(4-amino-3-(2,3-difluoro-4-methoxyphenyl)-1H-pyrazolo[3,4-d]pyrimidin-1-yl)ethyl)-5-chloro-3-phenylquinazolin-4(3H)-one]
OCI-LY10 cells; read-out: IC50
  pIC50: 7.99
CK1ε [3]
  pIC50: 7.35
OCI-LY10 xenograft tumor; [5]
  RTV Day 39: 2.11 ± 0.60
  T/C (%) Day 39: 28.86%
  TGI (%): 72.70%
  Tumor weight: 0.327 ± 0.048 g
Karpas299 cells
  pIC50: 6.07
[2]; IV 1 mg/kg
  AUC(0-t): 7200 ng·h/mL
  Cmax: 1520 ng/mL
[2]; PO 10 mg/kg
  AUC(0-t): 5780 ng·h/mL
  Cmax: 456 ng/mL
  Tmax: 6 h
[2]
  bioavailability: 8.02%

## CC(C)Oc1ccc(-c2nn([C@@H](C)c3nc4cccc(F)c4c(=O)n3-c3ccccc3)c3ncnc(N)c23)cc1F [CUX-031723]
CK1ε [1]; WO2017079558A1, read-out: IC50 of CK1ε
  pIC50: 5.03
